From patent US20260007613A1, “LONG-ACTING LOW-TOXICITY NOVEL CATIONIC LIPID COMPOUNDS AND COMPOSITION THEREOF” (BEIJING YOUCAREKECHUANG PHARMACEUTICAL TECHNOLOGY CO., LTD., priority 2023, published 2026)
Where “and” joins values, the source holds several entries; their conditions need not be identical. Equal values may be shown once.

Experiments:
[1] = Particle size and polydispersity index (PDI) of lipid nanoparticles by dynamic light scattering; type: physicochemical; settings: LNP formulation prepared from the cationic lipid, 25° C.
Description: The particle size and polydispersity index (PDI) were determined by dynamic light scattering using Malvern laser particle size analyzer.
10 μL of the liposome solution was weighed, diluted to 1 mL with RNase-free deionized water, and added to the sample pool. Each sample was measured in triplicate. The measurement conditions were: […] scattering angle, and 25° C.

293T cells [2] = assay: Fluorescent detection of Fluc-mRNA (cell transfection efficiency of LNP formulations); type: cell-based
Outline: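 293T cells were seeded at 10,000/well and cultured overnight, then given LNP carrying […] Fluc-mRNA (cationic:neutral:structured:polymer-conjugated lipid 49:10:39.5:1.5 molar) for 24 h. Luminescence was developed with […] and imaged on IVIS.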

293T cells [3] = assay: Cell survival rate determination (CCK-8); type: cell-based
Outline: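 293T cells plated at 10,000/well (96-well), adhered overnight, then exposed 24 h to Fluc-mRNA LNP (cationic:neutral:structured:PEG-lipid 49:10:39.5:1.5) or Lipofectamine 3000. Viability by CCK-8, 1 h incubation, absorbance at 450 nm.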

female BALB/C mice = assay: Live imaging in mice: protein expression of Fluc-mRNA delivered by LNP formulations; type: in vivo; settings: for average radiation intensity, times that of ALC-0315: comparator ALC-0315; for average radiation intensity, times that of HHMA: comparator HHMA; for average radiation intensity, times that of SM-102: comparator SM-102; for expression of mRNA in mice, times that of YK-302: comparator YK-302; for expression amount, times that of YK-309: comparator YK-309; for expression amount, times that of YK-313: comparator YK-313; for expression amount, times that of YK-321: comparator YK-321; for average radiation intensity, times that of compound 21: comparator compound 21; for average radiation intensity, times that of compound 23: comparator compound 23
Outline: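 Female BALB/C mice (4-6 weeks, 17-19 g) received LNP-formulated Fluc-mRNA […] intramuscularly. At 6 h, 24 h, 48 h and 7 d, luciferase substrate given intraperitoneally, and after 5 min average radiance measured by IVIS whole-body imaging.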

liver = assay: Distribution of liposomes in mice: protein expression in the liver (live imaging); type: in vivo; settings: at 6 h
Description: The LNP formulation containing […] Fluc-mRNA was injected intramuscularly into female BALB/C mice aged 4 to 6 weeks old and weighed 17 to 19 g, and the mice were intraperitoneally injected with fluorescent imaging substrate at specific time points after administration (6 h, 24 h, 48 h and 7 d), where the mice were free to move for 5 minutes, and then the average radiation intensity (corresponding to fluorescence expression intensity) of the protein expression of the mRNA carried by the LNP in the mice was detected by the IVIS Spectrum small animal live imaging device.
At 24 h, the LNP formulations prepared from all compounds had been metabolized in the liver and had no protein expression.

With `CCCCCCCCC(CCCCCCCC)COC(=O)CCCCCN(CCCCCC(=O)OCC(CCCCCCCC)CCCCCCCC)C[C@H](O)CN(C)CCO` [YK-305, (R)-Bis(2-octyldecyl)-6,6′-((2-hydroxy-3-((2-hydroxyethyl)(methyl)amino)propyl)azanediyl)dihexanoate] the “PDI (%)” value [1] was 10.7%, the “Particle size (nm)” value [1] was 191 nm and the “Relative light unit (RLU)” value (293T cells [2]; LNP formulation of Fluc-mRNA, 96-well plate, 24 hours) was 27408734 RLU. For the same compound, the “Multiples (YK-305)” value (293T cells [2]; RLU of YK-305 / RLU of the lipid of the line) was 1.00, the “Multiples (YK-310)” value (293T cells [2]; RLU of YK-310 / RLU of the lipid of the line) was 0.94 and the “Multiples (YK-312)” value (293T cells [2]; RLU of YK-312 / RLU of the lipid of the line) was 0.74. The “Multiples (YK-318)” value (293T cells [2]; RLU of YK-318 / RLU of the lipid of the line, Tables 5, 7, 11) was 0.41, the “Multiples (YK-319)” value (293T cells [2]; RLU of YK-319 / RLU of the lipid of the line, Tables 5, 7, 11) was 0.89 and the “Ratio relative to SM-102” value (293T cells [2]; RLU of the lipid / RLU of SM-102, times that of SM-102) was 17.09. For the same compound, the “cell transfection efficiency, times that of ALC-0315” value (293T cells [2]; comparator ALC-0315) was 13.48 times, the “cell transfection efficiency, times that of HHMA” value (293T cells [2]; comparator HHMA) was 13.66 times and the “cell transfection efficiency, times that of Lipofectamine 3000” value (293T cells [2]; comparator Lipofectamine 3000) was 23.12 times. For the same compound, the “cell transfection efficiency, times that of YK-009” value (293T cells [2]; comparator YK-009) was 5.35 times, the “cell transfection efficiency, times that of YK-301” value (293T cells [2]; comparator YK-301) was 32.53 times and the “cell transfection efficiency, times that of YK-303” value (293T cells [2]; comparator YK-303) was 43.76 times. For the same compound, the “cell transfection efficiency, times that of YK-306” value (293T cells [2]; comparator YK-306) was 12.47 times, the “cell transfection efficiency, times that of YK-307” value (293T cells [2]; comparator YK-307) was 6.01 times and the “cell transfection efficiency, times that of YK-308” value (293T cells [2]; comparator YK-308) was 5.44 times. The “cell transfection efficiency, times that of YK-309” value (293T cells [2]; comparator YK-309) was ~210 times and 218.62 times and ~200 times, the “cell transfection efficiency, times that of YK-311” value (293T cells [2]; comparator YK-311) was 13.96 times and the “cell transfection efficiency, times that of YK-313” value (293T cells [2]; comparator YK-313) was 31.63 times. The “cell transfection efficiency, times that of YK-314” value (293T cells [2]; comparator YK-314) was 50.07 times, the “cell transfection efficiency, times that of YK-315” value (293T cells [2]; comparator YK-315) was 17.27 times and the “cell transfection efficiency, times that of YK-316” value (293T cells [2]; comparator YK-316) was 5.70 times. For the same compound, the “cell transfection efficiency, times that of YK-317” value (293T cells [2]; comparator YK-317) was 7.60 times, the “cell transfection efficiency, times that of YK-320” value (293T cells [2]; comparator YK-320) was 10.14 times and the “cell transfection efficiency, times that of YK-321” value (293T cells [2]; comparator YK-321) was 19.53 times and ~20 times. For the same compound, the “cell transfection efficiency, times that of compound 21” value (293T cells [2]; comparator compound 21) was 19.14 times, the “cell transfection efficiency, times that of compound 23” value (293T cells [2]; comparator compound 23) was 20.21 times and the “Cell survival rate (%)” value (293T cells [3]; LNP formulation of Fluc-mRNA, 24 hours, CCK-8) was 82.18%. For the same compound, the “cell survival rate higher than ALC-0315” value (293T cells [3]; difference of survival rates, comparator ALC-0315) was 31.15% and ~30%, the “cell survival rate higher than HHMA” value (293T cells [3]; difference of survival rates, comparator HHMA) was 15.71% and ~15% and the “cell survival rate higher than Lipofectamine 3000” value (293T cells [3]; difference of survival rates, comparator Lipofectamine 3000) was 57.17%. The “cell survival rate higher than SM-102” value (293T cells [3]; difference of survival rates, comparator SM-102) was 12.73% and ~12%, the “cell survival rate higher than YK-301” value (293T cells [3]; difference of survival rates, comparator YK-301) was 29.22% and the “cell survival rate higher than YK-302” value (293T cells [3]; difference of survival rates, comparator YK-302) was 65.75% and ~65% and ~50%. The “cell survival rate higher than YK-303” value (293T cells [3]; difference of survival rates, comparator YK-303) was 18.86%, the “cell survival rate higher than YK-304” value (293T cells [3]; difference of survival rates, comparator YK-304) was 48.02% and the “cell survival rate higher than YK-306” value (293T cells [3]; difference of survival rates, comparator YK-306) was 39.99%. For the same compound, the “cell survival rate higher than YK-307” value (293T cells [3]; difference of survival rates, comparator YK-307) was 21.04%, the “cell survival rate higher than YK-308” value (293T cells [3]; difference of survival rates, comparator YK-308) was 11.19% and the “cell survival rate higher than YK-309” value (293T cells [3]; difference of survival rates, comparator YK-309) was 50.57%. For the same compound, the “cell survival rate higher than YK-311” value (293T cells [3]; difference of survival rates, comparator YK-311) was 12.12%, the “cell survival rate higher than YK-313” value (293T cells [3]; difference of survival rates, comparator YK-313) was 13.25% and the “cell survival rate higher than YK-314” value (293T cells [3]; difference of survival rates, comparator YK-314) was 14.30%. The “cell survival rate higher than YK-315” value (293T cells [3]; difference of survival rates, comparator YK-315) was 10.90%, the “cell survival rate higher than YK-316” value (293T cells [3]; difference of survival rates, comparator YK-316) was 11.65% and the “cell survival rate higher than YK-317” value (293T cells [3]; difference of survival rates, comparator YK-317) was 23.00% and ~20%. The “cell survival rate higher than YK-320” value (293T cells [3]; difference of survival rates, comparator YK-320) was 11.110%, the “cell survival rate higher than YK-321” value (293T cells [3]; difference of survival rates, comparator YK-321) was 9.84% and the “cell survival rate higher than compound 21” value (293T cells [3]; difference of survival rates, comparator compound 21) was 11.97%. The “cell survival rate higher than compound 23” value (293T cells [3]; difference of survival rates, comparator compound 23) was 10.68%, the “average radiation intensity, times that of ALC-0315” value (female BALB/C mice; 6 h) was 10.70 times and the “average radiation intensity, times that of HHMA” value (female BALB/C mice; 6 h) was 14.19 times. The “average radiation intensity, times that of SM-102” value (female BALB/C mice; 6 h) was 13.18 times, the “expression of mRNA in mice, times that of YK-302” value (female BALB/C mice; 6 h) was 633.70 times and the “expression amount, times that of YK-309” value (female BALB/C mice; 6 h) was 140.67 times. For the same compound, the “expression amount, times that of YK-313” value (female BALB/C mice; 6 h) was 20.89 times, the “expression amount, times that of YK-321” value (female BALB/C mice; 6 h) was 17.92 times and the “average radiation intensity, times that of compound 21” value (female BALB/C mice; 6 h) was 15.14 times. The “average radiation intensity, times that of compound 23” value (female BALB/C mice; 6 h) was 15.68 times, the average radiation intensity (female BALB/C mice; 6 h after intramuscular injection) was 9239340 and the “average radiation intensity, times that of ALC-0315” value (female BALB/C mice; 24 h) was 14.82 times. The “average radiation intensity, times that of HHMA” value (female BALB/C mice; 24 h) was 23.54 times, the “average radiation intensity, times that of SM-102” value (female BALB/C mice; 24 h) was 23.44 times and the “expression of mRNA in mice, times that of YK-302” value (female BALB/C mice; 24 h) was 713.70 times. For the same compound, the “expression amount, times that of YK-309” value (female BALB/C mice; 24 h) was 167.86 times, the “expression amount, times that of YK-313” value (female BALB/C mice; 24 h) was 27.04 times and the “expression amount, times that of YK-321” value (female BALB/C mice; 24 h) was 27.89 times. The “average radiation intensity, times that of compound 21” value (female BALB/C mice; 24 h) was 25.70 times, the “average radiation intensity, times that of compound 23” value (female BALB/C mice; 24 h) was 27.01 times and the average radiation intensity (female BALB/C mice; 24 h after intramuscular injection) was 2823400. The “average radiation intensity, times that of ALC-0315” value (female BALB/C mice; 48 h) was 26.32 times, the “average radiation intensity, times that of HHMA” value (female BALB/C mice; 48 h) was 32.18 times and the “average radiation intensity, times that of SM-102” value (female BALB/C mice; 48 h) was 32.19 times. The “expression amount, times that of YK-309” value (female BALB/C mice; 48 h) was 159.93 times and ~160 times, the “expression amount, times that of YK-313” value (female BALB/C mice; 48 h) was 40.99 times and the “expression amount, times that of YK-321” value (female BALB/C mice; 48 h) was 28.65 times. The “average radiation intensity, times that of compound 21” value (female BALB/C mice; 48 h) was 33.82 times, the “average radiation intensity, times that of compound 23” value (female BALB/C mice; 48 h) was 31.63 times and the average radiation intensity (female BALB/C mice; 48 h after intramuscular injection) was 1047720. For the same compound, the “average radiation intensity, times that of ALC-0315” value (female BALB/C mice; 7 d) was 18.02 times, the “average radiation intensity, times that of HHMA” value (female BALB/C mice; 7 d) was 21.63 times and the “average radiation intensity, times that of SM-102” value (female BALB/C mice; 7 d) was 19.18 times. For the same compound, the “expression amount, times that of YK-309” value (female BALB/C mice; 7 d) was 101.13 times and ~100 times, the “expression amount, times that of YK-313” value (female BALB/C mice; 7 d) was 39.26 times and the “expression amount, times that of YK-321” value (female BALB/C mice; 7 d) was 19.29 times. The “average radiation intensity, times that of compound 21” value (female BALB/C mice; 7 d) was 19.71 times, the “average radiation intensity, times that of compound 23” value (female BALB/C mice; 7 d) was 20.35 times and the average radiation intensity (female BALB/C mice; 7 d after intramuscular injection) was 127015. For the same compound, the “expression amount in the liver compared with ALC-0315 and SM-102” value (liver) was “reduced” and the “protein expression in the liver” value (liver; intramuscular injection) was “had protein expression in the liver”.
